Consider two compounds from patent US5350677A, “Method of assaying phosphatase with 3,4-dinitrophenylphosphate” (Iatron Laboratories, Inc., priority 1989, dated 1994).

Each structure is given as a SMILES string.

For series [1] the following is noted: without solubilizing auxiliary agent; cited from earlier work.
The nature of series [2]: Stability (decomposition) of substrate in aqueous solution. The format is physicochemical.

Regarding `CC(=O)N[C@H]1[C@H](Oc2ccc([N+](=O)[O-])cc2Cl)O[C@H](CO)[C@@H](O)[C@@H]1O` [2-chloro-4-nitrophenyl-N-acetyl-β-D-glucosaminide], the “solubility in water” value in series [1] was “difficult to dissolve in water”.

For the compound `CC(=O)N[C@H]1[C@H](Oc2ccc([N+](=O)[O-])c([N+](=O)[O-])c2)O[C@H](CO)[C@@H](O)[C@@H]1O` [3,4-DNG, 3,4-dinitrophenyl-N-acetyl-β-D-glucosaminide], the decomposition ratio in series [2] (enzyme reaction conditions (pH 5, 37° C.) for one hour, 60 min) is 1.5%. Also, the “stability of aqueous solution” value in series [2] (under ice-cooling) is “stable”.
